In ChEMBL document CHEMBL5505979, “Novel aminothiazoximone-corbelled ethoxycarbonylpyrimidones with antibiofilm activity to conquer Gram-negative bacteria through potential multitargeting effects” (Eur J Med Chem, 2024):
In brackets after ≈: the same amount, converted by molar mass. Activity calls are given as the source filed them. The rule behind the calls is not given here.

Assays:
Staphylococcus aureus = test: Anti-bacterial activity against Staphylococcus aureus ATCC 25923 assessed as inhibition of bacterial growth; format: functional; settings: Staphylococcus aureus, ATCC 25923; read-out: MIC
Escherichia coli [1] = test: Anti-bacterial activity against Escherichia coli ATCC 25922 assessed as inhibition of bacterial growth; format: functional
Pseudomonas aeruginosa [2] = test: Anti-bacterial activity against Pseudomonas aeruginosa ATCC 9027 assessed as inhibition of bacterial growth; format: functional
Pseudomonas aeruginosa [3] = test: Anti-bacterial activity against Pseudomonas aeruginosa CMCC (B) 10104 assessed as inhibition of bacterial growth; format: functional; settings: Pseudomonas aeruginosa, CMCC (B) 10104; read-out: MIC
Acinetobacter baumannii [4] = test: Bactericidal activity against Acinetobacter baumannii assessed as bacterial killing at 1 to 8 times of MIC concentration measured upto 8 hrs by time-kill kinetics assay; format: functional, organism-based
Acinetobacter baumannii [5] = test: Antibiofilm activity against Acinetobacter baumannii assessed as decrease in biofilm formation at MIC concentration relative to control; format: functional; parameters: scale not given: the % may be the effect or the level left
Acinetobacter baumannii [6] = test: Reduction of biofilm virulent factors in Acinetobacter baumannii assessed as decrease in extracellular polymeric substances (EPS) by measuring optical density at 490 nm at 4 times of MIC concentration by congo red binding assay (reference value: 0.188 to 0.192); format: functional
Escherichia coli [7] = test: Reduction of biofilm virulent factors in Escherichia coli ATCC 25922 assessed as decrease in extracellular polymeric substances (EPS) by measuring optical density at 490 nm at 2 times of MIC concentration by congo red binding assay (reference value: 0.028 to 0.031); format: functional
Acinetobacter baumannii [8] = test: Reduction of biofilm virulent factors in Acinetobacter baumannii assessed as decrease in extracellular polymeric substances (EPS) at 4 times of MIC concentration by congo red binding assay relative to control; format: functional; parameters: scale not given: the % may be the effect or the level left
Acinetobacter baumannii [9] = test: Anti-bacterial activity against Acinetobacter baumannii assessed as growth inhibition by measuring optical density measured at 2 time of MIC in presence of 1 times of MIC of norfloxacin by Checkerboard assay (reference value: 0.155); format: functional
Acinetobacter baumannii [10] = test: Anti-bacterial activity against Acinetobacter baumannii assessed as growth inhibition by measuring optical density measured at 1 time of MIC in presence of 1/8 times of MIC of norfloxacin by Checkerboard assay (reference value: 0.157); format: functional
Acinetobacter baumannii [11] = test: Anti-bacterial activity against Acinetobacter baumannii assessed as growth inhibition by measuring optical density measured at 1 time of MIC in presence of 2 times of MIC of norfloxacin by Checkerboard assay (reference value: 0.157); format: functional
Acinetobacter baumannii [12] = test: Anti-bacterial activity against Acinetobacter baumannii assessed as growth inhibition by measuring optical density measured at 1/2 time of MIC in presence of 1/2 times of MIC of norfloxacin by Checkerboard assay (reference value: 0.152); format: functional
Acinetobacter baumannii [13] = test: Anti-bacterial activity against Acinetobacter baumannii assessed as growth inhibition by measuring optical density measured at 1/4 time of MIC in presence of 1/8 times of MIC of norfloxacin by Checkerboard assay (reference value: 0.152); format: functional
Acinetobacter baumannii [14] = test: Anti-bacterial activity against Acinetobacter baumannii assessed as growth inhibition by measuring optical density measured at 1/4 time of MIC in presence of 2 times of MIC of norfloxacin by Checkerboard assay (reference value: 0.152); format: functional
Escherichia coli [15] = test: Anti-bacterial activity against Escherichia coli ATCC 25922 assessed as growth inhibition by measuring optical density measured at 4 time of MIC in presence of 2 times of MIC of norfloxacin by Checkerboard assay (reference value: 0.125); format: functional
Escherichia coli [16] = test: Anti-bacterial activity against Escherichia coli ATCC 25922 assessed as growth inhibition by measuring optical density measured at 2 time of MIC in presence of 1 times of MIC of norfloxacin by Checkerboard assay (reference value: 0.128); format: functional
Escherichia coli [17] = test: Anti-bacterial activity against Escherichia coli ATCC 25922 assessed as growth inhibition by measuring optical density measured at 1 time of MIC in presence of 1/4 times of MIC of norfloxacin by Checkerboard assay (reference value: 0.125); format: functional
Escherichia coli [18] = test: Anti-bacterial activity against Escherichia coli ATCC 25922 assessed as growth inhibition by measuring optical density measured at 1/2 time of MIC in presence of 1/8 times of MIC of norfloxacin by Checkerboard assay (reference value: 0.124); format: functional
Escherichia coli [19] = test: Anti-bacterial activity against Escherichia coli ATCC 25922 assessed as growth inhibition by measuring optical density measured at 1/2 time of MIC in presence of 1/4 times of MIC of norfloxacin by Checkerboard assay (reference value: 0.124); format: functional
Escherichia coli [20] = test: Anti-bacterial activity against Escherichia coli ATCC 25922 assessed as growth inhibition by measuring optical density measured at 1/2 time of MIC in presence of 1 times of MIC of norfloxacin by Checkerboard assay (reference value: 0.124); format: functional
Escherichia coli [21] = test: Anti-bacterial activity against Escherichia coli ATCC 25922 assessed as growth inhibition by measuring optical density measured at 1/4 time of MIC in presence of 1/2 times of MIC of norfloxacin by Checkerboard assay (reference value: 0.128); format: functional
Escherichia coli [22] = test: Anti-bacterial activity against Escherichia coli ATCC 25922 assessed as growth inhibition by measuring optical density measured at 1/4 time of MIC in presence of 2 times of MIC of norfloxacin by Checkerboard assay (reference value: 0.128); format: functional
Escherichia coli [23] = test: Induction of membrane disturbance in Escherichia coli ATCC 25922 assessed as increase in fluorescence intensity at 0.5 to 8 times of MIC concentration measured after 90 mins by Propidium iodide assay; format: functional, organism-based
Cell membrane [24] = test: Induction of membrane damage in Escherichia coli ATCC 25922 assessed as increase in fluorescence intensity at 1 to 4 times of MIC concentration measured after 90 mins by DiSC3 fluorescent probe assay; format: cell membranes
Acinetobacter baumannii [25] = test: Induction of membrane depolarization Acinetobacter baumannii assessed as increase in red fluorescence intensity at 0.5 to 8 times of MIC concentration measured after 6 hrs by […] assay; format: functional, organism-based
Cell membrane [26] = test: Induction of physical destruction of cell membrane in Escherichia coli ATCC 25922 assessed as leakage of nucleic acid by measuring absorbance of 260 nm at 1/4 to 8 times of MIC concentration; format: cell membranes
Cell membrane [27] = test: Induction of physical destruction of cell membrane in Acinetobacter baumannii assessed as leakage of protein at 1/4 to 8 times of MIC concentration by Coomassie blue quantitative assay; format: cell membranes
Cell membrane [28] = test: Induction of physical destruction of cell membrane in Escherichia coli ATCC 25922 assessed as leakage of protein at 1/4 to 8 times of MIC concentration by Coomassie blue quantitative assay; format: cell membranes
Acinetobacter baumannii [29] = test: Anti-bacterial activity against Acinetobacter baumannii assessed as bacterial mortality at 1 to 4 MIC concentration by propidium iodide based fluorescence microscopy relative to control; format: functional, organism-based
Calf thymus DNA = test: Binding affinity to calf thymus DNA assessed as compound/DNA binary complex by measuring increase in absorption at 260 nm by UV-vis/fluorescence spectroscopy; format: nucleic-acid assay; settings: Bos taurus

CCCCc1nc(Cl)c(C2NC(=O)NC(CN3CCN(C(=O)/C(=N/OC)c4csc(N)n4)CC3)=C2C(=O)OCC)[nH]1 (stereo unspecified)
MIC (Staphylococcus aureus): 7 µM (≈ 4.26 µg/mL) | MIC (Escherichia coli [1]): 7 µM (≈ 4.26 µg/mL) | MIC (Pseudomonas aeruginosa [2]): 26 µM (≈ 15.8 µg/mL) | MIC (Pseudomonas aeruginosa [3]): 26 µM (≈ 15.8 µg/mL) | Activity (Acinetobacter baumannii [4]): Active | Activity (Acinetobacter baumannii [5]): 18.6% | OD (Acinetobacter baumannii [6]): 0.097 | OD (Escherichia coli [7]): 0.068 | Activity (Acinetobacter baumannii [8]): 52.4% | OD (Acinetobacter baumannii [9]): 0.052 | OD (Acinetobacter baumannii [10]): 0.116 | OD (Acinetobacter baumannii [11]): 0.053 | OD (Acinetobacter baumannii [12]): 0.107 | OD (Acinetobacter baumannii [13]): 0.127 | OD (Acinetobacter baumannii [14]): 0.116 | OD (Escherichia coli [15]): 0.051 | OD (Escherichia coli [16]): 0.052 | OD (Escherichia coli [17]): 0.111 | OD (Escherichia coli [18]): 0.117 | OD (Escherichia coli [19]): 0.118 | OD (Escherichia coli [20]): 0.082 | OD (Escherichia coli [21]): 0.125 | OD (Escherichia coli [22]): 0.078 | Activity (Escherichia coli [23]): Active | Activity (Cell membrane [24]): inactive | Activity (Acinetobacter baumannii [25]): Active | Activity (Cell membrane [26]): Active | Activity (Cell membrane [27]): Active | Activity (Cell membrane [28]): Active | Activity (Acinetobacter baumannii [29]): Active | Activity (Calf thymus DNA): Active
